{
  "source": "patent US10385022B2",
  "about": "“3-amino-pyridines as GPBAR1 agonists” (HOFFMANN-LA ROCHE INC., priority 2011, dated 2019)",
  "data": [
    {"molecular_target": "human GPBAR1 receptor (Homo sapiens (Human), UniProt Q8TDU6)", "sequence (Q8TDU6 whole entry)": "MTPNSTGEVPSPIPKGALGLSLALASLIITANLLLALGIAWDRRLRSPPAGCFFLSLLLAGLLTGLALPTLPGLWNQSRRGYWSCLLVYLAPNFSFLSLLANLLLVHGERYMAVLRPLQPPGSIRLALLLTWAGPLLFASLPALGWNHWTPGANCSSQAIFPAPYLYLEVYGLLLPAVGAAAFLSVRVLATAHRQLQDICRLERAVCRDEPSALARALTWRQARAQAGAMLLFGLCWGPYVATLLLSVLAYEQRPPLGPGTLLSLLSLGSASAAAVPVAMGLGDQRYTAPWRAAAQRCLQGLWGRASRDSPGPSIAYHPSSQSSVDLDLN", "test": "functional cAMP assay in CHO-dhfr(minus) cells expressing human GPBAR1 receptors", "format": "cell-based", "settings": "CHO-dhfr(minus) cells expressing human GPBAR1, 30 min at 30° C.", "protocol": "The final clone was verified by DNA sequence analysis. The plasmid was transfected into CHO cells deficient in dihydrofolate reductase activity (CHO-dhfr-) using Lipofectamine plus (Invitrogen). Clones were isolated in limited dilution conditions and identified by activities in the cAMP assay using lithocholic acid as agonist.\nEC50 values were determined using Activity Base analysis (ID Business Solution, Limited). […] Specificity for GPBAR1 was tested in non-transfected CHO cells in the same assay as above.", "units": {"EC50": "nM"}, "values": [
      {"smiles": "Cc1cccnc1-c1ccncc1N(C)C(=O)c1cc(C(F)(F)F)cc(C(F)(F)F)c1", "note": "[Example 57, N-Methyl-N-(3-methyl-[2,4′]bipyridinyl-3′-yl)-3,5-bis-trifluoromethyl-benzamide]", "EC50": 351},
      {"smiles": "COc1cc(F)ccc1-c1ccncc1N(C)C(=O)c1cc(SCCCC(=O)O)cc(C(F)(F)F)c1", "note": "[Example 239, 4-(3-{[4-(4-Fluoro-2-methoxy-phenyl)-pyridin-3-yl]-methyl-carbamoyl}-5-trifluoromethyl-phenylsulfanyl)-butyric acid]", "EC50": 508},
      {"smiles": "CN(C(=O)c1cc(C(F)(F)F)cc(S(C)(=O)=O)c1)c1cnccc1-c1ccccc1OC(F)(F)F", "note": "[Example 274, 3-Methanesulfonyl-N-methyl-N-[4-(2-trifluoromethoxy-phenyl)-pyridin-3-yl]-5-trifluoromethyl-benzamide]", "EC50": 34},
      {"smiles": "CN(C(=O)c1cc(C(F)(F)F)cc(C(F)(F)F)c1)c1cnccc1-c1ccccc1", "note": "[Example 322, N-Methyl-N-(4-phenyl-pyridin-3-yl)-3,5-bis-trifluoromethyl-benzamide]", "EC50": 11},
      {"smiles": "COc1cccc(-c2ccncc2N(C)C(=O)c2cc(C(F)(F)F)cc(C(F)(F)F)c2)n1", "note": "[Example 98, N-(6-Methoxy-[2,4′]bipyridinyl-3′-yl)-N-methyl-3,5-bis-trifluoromethyl-benzamide]", "EC50": 109},
      {"smiles": "Cc1ccccc1-c1ccncc1N(C)C(=O)c1ccc(C(F)(F)F)c(C(F)(F)F)c1", "note": "[Example 101, N-Methyl-N-(4-o-tolyl-pyridin-3-yl)-3,4-bis-trifluoromethyl-benzamide]", "EC50": 298},
      {"smiles": "COc1cc(F)ccc1-c1ccncc1N(C)C(=O)c1cc(C(F)(F)F)cc(C(F)(F)F)c1", "note": "[Example 38, N-[4-(4-Fluoro-2-methoxy-phenyl)-pyridin-3-yl]-N-methyl-3,5-bis-trifluoromethyl-benzamide]", "EC50": 11},
      {"smiles": "CS(=O)(=O)c1cc(C(=O)N(CC#N)c2cnccc2-c2ccccc2OC(F)(F)F)cc(C(F)(F)F)c1", "note": "[Example 311, N-Cyanomethyl-3-methanesulfonyl-N-[4-(2-trifluoromethoxy-phenyl)-pyridin-3-yl]-5-trifluoromethyl-benzamide]", "EC50": 81},
      {"smiles": "Cc1cc(F)ccc1-c1cc(Cl)ncc1N(C)C(=O)c1cc(C(F)(F)F)cc(C(F)(F)F)c1", "note": "[Example 72, N-[6-Chloro-4-(4-fluoro-2-methyl-phenyl)-pyridin-3-yl]-N-methyl-3,5-bis-trifluoromethyl-benzamide]", "EC50": 593},
      {"smiles": "COc1ccccc1-c1ccncc1N(C)C(=O)c1cc(C(F)(F)F)cc(S(C)(=O)=O)c1", "note": "[Example 263, 3-Methanesulfonyl-N-[4-(2-methoxy-phenyl)-pyridin-3-yl]-N-methyl-5-trifluoromethyl-benzamide]", "EC50": 17},
      {"smiles": "O=C(NCCN(C(=O)c1cc(C(F)(F)F)cc(C(F)(F)F)c1)c1cnccc1-c1ccccc1Cl)OCc1ccccc1", "note": "[Example 125, (2-{(3,5-Bis-trifluoromethyl-benzoyl)-[4-(2-chloro-phenyl)-pyridin-3-yl]-amino}-ethyl)-carbamic acid benzyl ester]", "EC50": 1490},
      {"smiles": "Cc1ccccc1-c1ccncc1N(C)C(=O)c1cc(F)cc(F)c1", "note": "[Example 9, 3,5-Difluoro-N-methyl-N-(4-o-tolyl-pyridin-3-yl)-benzamide]", "EC50": 1230},
      {"smiles": "Cc1cc(C)nc(C(=O)N(C)c2cnccc2-c2ccccc2C)c1", "note": "[Example 121, 4,6-Dimethyl-pyridine-2-carboxylic acid methyl-(4-o-tolyl-pyridin-3-yl)-amide]", "EC50": 1920},
      {"smiles": "CN(C(=O)c1cc(O)cc(C(F)(F)F)c1)c1cnccc1-c1ccccc1Cl", "note": "[Example 79, N-[4-(2-Chloro-phenyl)-pyridin-3-yl]-3-hydroxy-N-methyl-5-trifluoromethyl-benzamide]", "EC50": 1380},
      {"smiles": "COc1cc(F)ccc1-c1ccncc1N(C)C(=O)c1cc(C(F)(F)F)cc(S(=O)(=O)N2CCS(=O)(=O)CC2)c1", "note": "[Example 304, 3-(1,1-Dioxo-thiomorpholine-4-sulfonyl)-N-[4-(4-fluoro-2-methoxy-phenyl)-pyridin-3-yl]-N-methyl-5-trifluoromethyl-benzamide]", "EC50": 15},
      {"smiles": "CS(=O)(=O)c1cc(C(=O)N(CC(F)(F)F)c2cnccc2-c2ccccc2OC(F)(F)F)cc(C(F)(F)F)c1", "note": "[Example 298, 3-Methanesulfonyl-N-(2,2,2-trifluoro-ethyl)-N-[4-(2-trifluoromethoxy-phenyl)-pyridin-3-yl]-5-trifluoromethyl-benzamide]", "EC50": 788},
      {"smiles": "CN(C(=O)c1cc(Br)cc(C(F)(F)F)c1)c1cnccc1-c1ccccc1Cl", "note": "[Example 74, 3-Bromo-N-[4-(2-chloro-phenyl)-pyridin-3-yl]-N-methyl-5-trifluoromethyl-benzamide]", "EC50": 34},
      {"smiles": "Cc1ccccc1-c1ccncc1N(C)C(=O)c1cc(F)c(F)c(F)c1", "note": "[Example 104, 3,4,5-Trifluoro-N-methyl-N-(4-o-tolyl-pyridin-3-yl)-benzamide]", "EC50": 1640},
      {"smiles": "Cc1ccccc1-c1ccncc1N(C)C(=O)c1cc(Cl)nc(C(F)(F)F)c1", "note": "[Example 171, 2-Chloro-N-methyl-N-(4-o-tolyl-pyridin-3-yl)-6-trifluoromethyl-isonicotinamide]", "EC50": 56},
      {"smiles": "COc1cc(F)ccc1-c1ccncc1N(C)C(=O)c1cc(SCCN2CCC2)cc(C(F)(F)F)c1", "note": "[Example 259, 3-(2-Azetidin-1-yl-ethylsulfanyl)-N-[4-(4-fluoro-2-methoxy-phenyl)-pyridin-3-yl]-N-methyl-5-trifluoromethyl-benzamide]", "EC50": 134},
      {"smiles": "COC(=O)CN(C(=O)c1cc(C(F)(F)F)cc(S(=O)(=O)N(C)C)c1)c1cnccc1-c1cccnc1OC", "note": "[Example 178, Methyl 2-(3-(N,N-dimethylsulfamoyl)-N-(2-methoxy-3,4′-bipyridin-3′-yl)-5-(trifluoromethyl)benzamido)acetate]", "EC50": 49},
      {"smiles": "CN(C(=O)c1cc(C(F)(F)F)cc(C(F)(F)F)c1)c1cnccc1-c1ncccc1F", "note": "[Example 68, N-(3-Fluoro-[2,4′]bipyridinyl-3′-yl)-N-methyl-3,5-bis-trifluoromethyl-benzamide]", "EC50": 801},
      {"smiles": "COc1cc(F)c(F)cc1-c1ccncc1N(CC(F)(F)F)C(=O)c1cc(C(F)(F)F)nc(C(F)(F)F)c1", "note": "[Example 146, N-[4-(4,5-Difluoro-2-methoxy-phenyl)-pyridin-3-yl]-N-(2,2,2-trifluoro-ethyl)-2,6-bis-trifluoromethyl-isonicotinamide]", "EC50": 69},
      {"smiles": "CN(C(=O)c1cc(C(F)(F)F)cc(C(F)(F)F)c1)c1cnccc1-c1cccc(Cl)c1F", "note": "[Example 111, N-[4-(3-Chloro-2-fluoro-phenyl)-pyridin-3-yl]-N-methyl-3,5-bis-trifluoromethyl-benzamide]", "EC50": 256},
      {"smiles": "Cc1ccccc1-c1ccncc1N(C)C(=O)c1cc(C(F)(F)F)ccc1F", "note": "[Example 4, 2-Fluoro-N-methyl-N-(4-o-tolyl-pyridin-3-yl)-5-trifluoromethyl-benzamide]", "EC50": 247},
      {"smiles": "COc1ccc(-c2ccncc2N(C)C(=O)c2cc(C(F)(F)F)cc(C(F)(F)F)c2)c(C)c1", "note": "[Example 27, N-[4-(4-Methoxy-2-methyl-phenyl)-pyridin-3-yl]-N-methyl-3,5-bis-trifluoromethyl-benzamide]", "EC50": 1050},
      {"smiles": "CNc1cc(-c2ccccc2C)c(N(C)C(=O)c2cc(C(F)(F)F)cc(C(F)(F)F)c2)cn1", "note": "[Example 15, N-Methyl-N-(6-methylamino-4-o-tolyl-pyridin-3-yl)-3,5-bis-trifluoromethyl-benzamide]", "EC50": 323},
      {"smiles": "Cc1cnccc1-c1ccncc1N(C)C(=O)c1cc(C(F)(F)F)cc(C(F)(F)F)c1", "note": "[Example 34, N-Methyl-N-(3′-methyl-[4,4′]bipyridinyl-3-yl)-3,5-bis-trifluoromethyl-benzamide]", "EC50": 502},
      {"smiles": "COc1cc(F)ccc1-c1ccncc1N(Cc1nc(C)co1)C(=O)c1cc(C(F)(F)F)cc(S(C)(=O)=O)c1", "note": "[Example 293, N-[4-(4-Fluoro-2-methoxy-phenyl)-pyridin-3-yl]-3-methanesulfonyl-N-(4-methyl-oxazol-2-ylmethyl)-5-trifiuoromethyl-benzamide]", "EC50": 2460},
      {"smiles": "O=C(c1cc(C(F)(F)F)cc(C(F)(F)F)c1)N(CC(F)(F)F)c1cnccc1-c1ccccc1Cl", "note": "[Example 85, N-[4-(2-Chloro-phenyl)-pyridin-3-yl]-N-(2,2,2-trifluoro-ethyl)-3,5-bis-trifluoromethyl-benzamide]", "EC50": 200},
      {"smiles": "COc1cc(-c2ccncc2N(C)C(=O)c2cc(C(F)(F)F)cc(S(C)(=O)=O)c2)c(F)cc1F", "note": "[Example 284, N-[4-(2,4-Difluoro-5-methoxy-phenyl)-pyridin-3-yl]-3-methanesulfonyl-N-methyl-5-trifluoromethyl-benzamide]", "EC50": 353},
      {"smiles": "CN(C(=O)c1cc(C(F)(F)F)cc(S(C)(=O)=O)c1)c1cnccc1-c1ccccc1OC1CC1", "note": "[Example 242, N-[4-(2-Cyclopropoxy-phenyl)-pyridin-3-yl]-3-methanesulfonyl-N-methyl-5-trifluoromethyl-benzamide]", "EC50": 11},
      {"smiles": "COc1cc(F)ccc1-c1ccncc1N(C)C(=O)c1cc(C(F)(F)F)cc(S(=O)(=O)CCCCC(=O)O)c1", "note": "[Example 248, 5-(3-{[4-(4-Fluoro-2-methoxy-phenyl)-pyridin-3-yl]-methyl-carbamoyl}-5-trifluoromethyl-benzenesulfonyl)-pentanoic acid]", "EC50": 323},
      {"smiles": "COc1cc(F)ccc1-c1ccncc1N(C)C(=O)c1cc(C2CN(C(=O)OC(C)(C)C)C2)cc(C(F)(F)F)c1", "note": "[Example 245, 3-(3-{[4-(4-Fluoro-2-methoxy-phenyl)-pyridin-3-yl]-methyl-carbamoyl}-5-trifluoromethyl-phenyl)-azetidine-1-carboxylic acid tert-butyl ester]", "EC50": 933},
      {"smiles": "Cc1ccccc1-c1ccncc1N(C)C(=O)c1cc(F)cc(Cl)c1", "note": "[Example 103, 3-Chloro-5-fluoro-N-methyl-N-(4-o-tolyl-pyridin-3-yl)-benzamide]", "EC50": 329}
    ]}
  ]
}
